In ChEMBL document CHEMBL1201861, “Genomics of Drug Sensitity in Cancer screening data, Wellcome Trust Sanger Institute”:

Legend:
Experiment in all cases: cells
ES5 = assay type: functional, cell-based, Homo sapiens; details: Homo sapiens, ES5;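 note: growth inhibition of human ES5 cells, read out by a cell viability assay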
Description: SANGER: Inhibition of human ES5 cell growth in a cell viability assay.

TE-11 = assay type: functional, cell-based, Homo sapiens; details: Homo sapiens, TE-11;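 note: growth inhibition of human TE-11 cells, read out by a cell viability assay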
Description: SANGER: Inhibition of human TE-11 cell growth in a cell viability assay.

NUGC-3 = assay type: functional, cell-based, Homo sapiens; details: Homo sapiens, NUGC-3;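 note: growth inhibition of human NUGC-3 cells, read out with a cell viability assay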
Description: SANGER: Inhibition of human NUGC-3 cell growth in a cell viability assay.

NB12 = assay type: functional, cell-based, Homo sapiens; details: Homo sapiens, NB12;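 note: growth inhibition of human NB12 cells, read out by a cell viability assay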
Description: SANGER: Inhibition of human NB12 cell growth in a cell viability assay.

Ramos-2G6-4C10 = assay type: functional, cell-based; details: Homo sapiens;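 note: growth inhibition of the cell line, measured by a cell viability read-out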
Description: SANGER: Inhibition of human Ramos-2G6-4C10 cell growth in a cell viability assay.

NCI-H520 = assay type: functional, cell-based, Homo sapiens; details: Homo sapiens, NCI-H520;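 note: growth inhibition of NCI-H520 cells, measured by a cell viability assay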
Description: SANGER: Inhibition of human NCI-H520 cell growth in a cell viability assay.

HCC1569 = assay type: functional, cell-based, Homo sapiens; details: Homo sapiens, HCC1569;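 note: growth inhibition of human HCC1569 cells, read out with a cell viability assay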
Description: SANGER: Inhibition of human HCC1569 cell growth in a cell viability assay.

TGBC24TKB = assay type: functional, cell-based, Homo sapiens; details: Homo sapiens, TGBC24TKB;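 note: growth inhibition of human TGBC24TKB cells, read out with a cell viability assay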
Description: SANGER: Inhibition of human TGBC24TKB cell growth in a cell viability assay.

DMS-273 = assay type: functional, cell-based, Homo sapiens; details: Homo sapiens, DMS-273
Description: SANGER: Inhibition of human DMS-273 cell growth in a cell viability assay.

D283 Med = assay type: functional, cell-based, Homo sapiens; details: Homo sapiens, D283 Med
Description: SANGER: Inhibition of human D-283MED cell growth in a cell viability assay.

DoTc2-4510 = assay type: functional, cell-based, Homo sapiens; details: Homo sapiens, DoTc2-4510
SK-OV-3 = assay type: functional, cell-based, Homo sapiens; details: Homo sapiens, SK-OV-3;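 note: growth inhibition of SK-OV-3 human cells, read out with a cell viability assay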
Description: SANGER: Inhibition of human SK-OV-3 cell growth in a cell viability assay.

KOSC-2 = assay type: functional, cell-based, Homo sapiens; details: Homo sapiens, KOSC-2;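 note: growth inhibition of KOSC-2 cells, read out by a cell viability assay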
Description: SANGER: Inhibition of human KOSC-2 cell growth in a cell viability assay.

TYK-nu = assay type: functional, cell-based, Homo sapiens; details: Homo sapiens, TYK-nu;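 note: growth inhibition of human TYK-nu cells, read out by a cell viability assay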
Description: SANGER: Inhibition of human TYK-nu cell growth in a cell viability assay.

HH = assay type: functional, cell-based; details: Homo sapiens
Description: SANGER: Inhibition of human HH cell growth in a cell viability assay.

A2780 = assay type: functional, cell-based, Homo sapiens; details: Homo sapiens, A2780;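 note: growth inhibition of A2780 cells, read out with a cell viability assay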
Description: SANGER: Inhibition of human A2780 cell growth in a cell viability assay.

SAS = assay type: functional, cell-based, Homo sapiens; details: Homo sapiens, SAS;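 note: growth inhibition of SAS cells, read out with a cell viability assay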
Description: SANGER: Inhibition of human SAS cell growth in a cell viability assay.

NCI-H2126 = assay type: functional, cell-based, Homo sapiens; details: Homo sapiens, NCI-H2126;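 note: growth inhibition of the cancer cell line, determined with a cell viability readout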
Description: SANGER: Inhibition of human NCI-H2126 cell growth in a cell viability assay.

PANC-08-13 = assay type: functional, cell-based, Homo sapiens; details: Homo sapiens, PANC-08-13;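 note: cell growth inhibition, measured with a cell viability assay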
Description: SANGER: Inhibition of human PANC-08-13 cell growth in a cell viability assay.

CAMA-1 = assay type: functional, cell-based, Homo sapiens; details: Homo sapiens, CAMA-1;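 note: growth inhibition of CAMA-1 cells, read out with a cell viability assay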
Description: SANGER: Inhibition of human CAMA-1 cell growth in a cell viability assay.

COLO-829 = assay type: functional, cell-based, Homo sapiens; details: Homo sapiens, COLO-829
Description: SANGER: Inhibition of human COLO-829 cell growth in a cell viability assay.

LK-2 = assay type: functional, cell-based, Homo sapiens; details: Homo sapiens, LK-2;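 note: growth inhibition of LK-2 cells, read out with a viability assay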
Description: SANGER: Inhibition of human LK-2 cell growth in a cell viability assay.

WM-115 = assay type: functional, cell-based, Homo sapiens; details: Homo sapiens, WM-115
Description: SANGER: Inhibition of human WM-115 cell growth in a cell viability assay.

GOTO = assay type: functional, cell-based, Homo sapiens; details: Homo sapiens, GOTO;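 note: growth inhibition of GOTO cells, read out by a cell viability assay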
Description: SANGER: Inhibition of human GOTO cell growth in a cell viability assay.

U2OS = assay type: functional, cell-based, Homo sapiens, U-2-OS; details: Homo sapiens, U2OS;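 note: growth inhibition of human U-2-OS cells, determined with a cell viability assay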
Description: SANGER: Inhibition of human U-2-OS cell growth in a cell viability assay.

MKN-45 = assay type: functional, cell-based, Homo sapiens; details: Homo sapiens, MKN-45;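 note: growth inhibition of human MKN-45 cells, measured with a cell viability assay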
Description: SANGER: Inhibition of human MKN45 cell growth in a cell viability assay.

Capan-2 = assay type: functional, cell-based, Homo sapiens; details: Homo sapiens, Capan-2;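 note: Capan-2 cell growth inhibition, read out with a viability assay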
Description: SANGER: Inhibition of human Capan-2 cell growth in a cell viability assay.

LB771-HNC = assay type: functional, cell-based, Homo sapiens; details: Homo sapiens, LB771-HNC;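 note: growth inhibition of LB771-HNC human cells, read out with a cell viability assay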
Description: SANGER: Inhibition of human LB771-HNC cell growth in a cell viability assay.

RH-1 = assay type: functional, cell-based, Homo sapiens; details: Homo sapiens, RH-1;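 note: growth inhibition of human RH-1 cells, read out with a cell viability assay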
Description: SANGER: Inhibition of human RH-1 cell growth in a cell viability assay.

HCC2157 = assay type: functional, cell-based; details: Homo sapiens;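 note: growth inhibition of the cancer cell line, read out as cell viability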
Description: SANGER: Inhibition of human HCC2157 cell growth in a cell viability assay.

A3-KAW = assay type: functional, cell-based; details: Homo sapiens;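 note: growth inhibition of human A3-KAW cells, read out with a cell viability assay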
Description: SANGER: Inhibition of human A3-KAW cell growth in a cell viability assay.

NB5 = assay type: functional, cell-based, Homo sapiens; details: Homo sapiens, NB5;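 note: growth inhibition of NB5 cells, read out as cell viability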
Description: SANGER: Inhibition of human NB5 cell growth in a cell viability assay.

BE-13 = assay type: functional, cell-based; details: Homo sapiens;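 note: growth inhibition of human BE-13 cells, measured with a cell viability assay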
Description: SANGER: Inhibition of human BE-13 cell growth in a cell viability assay.

KYSE-450 = assay type: functional, cell-based; details: Homo sapiens;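 note: cell growth inhibition measured by a viability assay in human KYSE-450 cells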
Description: SANGER: Inhibition of human KYSE-450 cell growth in a cell viability assay.

TE-6 = assay type: functional, cell-based, Homo sapiens; details: Homo sapiens, TE-6;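 note: growth inhibition of TE-6 cells, read out with a cell viability assay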
Description: SANGER: Inhibition of human TE-6 cell growth in a cell viability assay.

ETK-1 = assay type: functional, cell-based, Homo sapiens; details: Homo sapiens, ETK-1;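 note: growth inhibition of human ETK-1 cells, read out with a cell viability assay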
Description: SANGER: Inhibition of human ETK-1 cell growth in a cell viability assay.

Ca-Ski = assay type: functional, cell-based; details: Homo sapiens;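 note: cell viability assay measuring inhibition of Ca-Ski cell growth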
Description: SANGER: Inhibition of human Ca-Ski cell growth in a cell viability assay.

ES4 = assay type: functional, cell-based, Homo sapiens; details: Homo sapiens, ES4;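 note: growth inhibition of human ES4 cells, read out by a cell viability assay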
Description: SANGER: Inhibition of human ES4 cell growth in a cell viability assay.

HC-1 = assay type: functional, cell-based; details: Homo sapiens;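 note: growth inhibition of HC-1 cells measured by a cell viability assay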
Description: SANGER: Inhibition of human HC-1 cell growth in a cell viability assay.

MV4-11 = assay type: functional, cell-based, MV-4-11; details: Homo sapiens;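 note: cell viability readout measuring growth inhibition of human MV-4-11 cells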
Description: SANGER: Inhibition of human MV-4-11 cell growth in a cell viability assay.

SK-PN-DW = assay type: functional, cell-based; details: Homo sapiens;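 note: growth inhibition measured with a viability assay on these cells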
Description: SANGER: Inhibition of human SK-PN-DW cell growth in a cell viability assay.

VMRC-RCZ = assay type: functional, cell-based; details: Homo sapiens;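 note: growth inhibition measured with a cell viability assay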
Description: SANGER: Inhibition of human VMRC-RCZ cell growth in a cell viability assay.

BHT-101 = assay type: functional, cell-based, Homo sapiens; details: Homo sapiens, BHT-101
Description: SANGER: Inhibition of human BHT-101 cell growth in a cell viability assay.

ACN = assay type: functional, cell-based, Homo sapiens; details: Homo sapiens, ACN;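 note: growth inhibition of the human ACN cell line, read out via cell viability testing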
Description: SANGER: Inhibition of human ACN cell growth in a cell viability assay.

DBTRG-05MG = assay type: functional, cell-based, Homo sapiens; details: Homo sapiens, DBTRG-05MG;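 note: cell viability assay measuring growth inhibition of human DBTRG-05MG cells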
Description: SANGER: Inhibition of human DBTRG-05MG cell growth in a cell viability assay.

NCI-H1563 = assay type: functional, cell-based, Homo sapiens; details: Homo sapiens, NCI-H1563;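 note: growth inhibition of human NCI-H1563 cells, read out with a cell viability assay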
Description: SANGER: Inhibition of human NCI-H1563 cell growth in a cell viability assay.

EFO-27 = assay type: functional, cell-based, Homo sapiens; details: Homo sapiens, EFO-27;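 note: growth inhibition of EFO-27 cells, read out with a cell viability assay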
Description: SANGER: Inhibition of human EFO-27 cell growth in a cell viability assay.

LB373-MEL-D = assay type: functional, cell-based, Homo sapiens; details: Homo sapiens, LB373-MEL-D;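 note: growth inhibition of the cell line, read out in a cell viability assay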
Description: SANGER: Inhibition of human LB373-MEL-D cell growth in a cell viability assay.

SCC-4 = assay type: functional, cell-based, Homo sapiens; details: Homo sapiens, SCC-4;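 note: growth inhibition of human SCC-4 cells, read out as cell viability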
Description: SANGER: Inhibition of human SCC-4 cell growth in a cell viability assay.

NH-12 = assay type: functional, cell-based, Homo sapiens; details: Homo sapiens, NH-12;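 note: growth inhibition of NH-12 cells, read out with a cell viability assay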
Description: SANGER: Inhibition of human NH-12 cell growth in a cell viability assay.

HCC70 = assay type: functional, cell-based, Homo sapiens; details: Homo sapiens, HCC70;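 note: cell viability assay measuring how strongly the compound suppresses proliferation of HCC70 cells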
Description: SANGER: Inhibition of human HCC70 cell growth in a cell viability assay.

`Cn1cncc1[C@@](N)(c1ccc(Cl)cc1)c1ccc2c(c1)c(-c1cccc(Cl)c1)cc(=O)n2C` [TIPIFARNIB] was tested, and the IC50 (ES5) was greater than 16 µM, the IC50 (TE-11) was 1.69 µM and the IC50 (NUGC-3) was 4.19 µM. It also gave an IC50 (NB12) of 7.99 µM, an IC50 (Ramos-2G6-4C10) greater than 16 µM and an IC50 (NCI-H520) of 2.22 µM. For the same molecule, the IC50 (HCC1569) was 2.58 µM, the IC50 (TGBC24TKB) was greater than 16 µM and the IC50 (DMS-273) was 0.72 µM. The IC50 (D283 Med) was greater than 16 µM, the IC50 (DoTc2-4510) was 1.68 µM and the IC50 (SK-OV-3) was 2.49 µM. The IC50 (KOSC-2) was greater than 16 µM, the IC50 (TYK-nu) was greater than 16 µM and the IC50 (HH) was 0.191 µM. It also gave an IC50 (A2780) of 3.3 µM, an IC50 (SAS) greater than 16 µM and an IC50 (NCI-H2126) greater than 16 µM. The IC50 (PANC-08-13) was greater than 16 µM, the IC50 (CAMA-1) was greater than 16 µM and the IC50 (COLO-829) was 12.6 µM. The IC50 (LK-2) was 1.06 µM, the IC50 (WM-115) was greater than 16 µM and the IC50 (GOTO) was greater than 16 µM. The IC50 (U2OS) was greater than 16 µM, the IC50 (MKN-45) was 2.79 µM and the IC50 (Capan-2) was 10.6 µM. The IC50 (LB771-HNC) was 1.13 µM, the IC50 (RH-1) was 2.75 µM and the IC50 (HCC2157) was 0.323 µM. The IC50 (A3-KAW) was 0.901 µM, the IC50 (NB5) was greater than 16 µM and the IC50 (BE-13) was 4.94 µM. The IC50 (KYSE-450) was 0.729 µM, the IC50 (TE-6) was 7.21 µM and the IC50 (ETK-1) was 0.0215 µM. It also gave an IC50 (Ca-Ski) of 9.17 µM, an IC50 (ES4) of 1.28 µM and an IC50 (HC-1) of 1.75 µM. The IC50 (MV4-11) was 0.733 µM, the IC50 (SK-PN-DW) was 15.5 µM and the IC50 (VMRC-RCZ) was 3.18 µM. The IC50 (BHT-101) was 3.09 µM, the IC50 (ACN) was 1.46 µM and the IC50 (DBTRG-05MG) was 14.4 µM. It also gave an IC50 (NCI-H1563) greater than 16 µM, an IC50 (EFO-27) of 0.714 µM and an IC50 (LB373-MEL-D) of 8.85 µM. The IC50 (SCC-4) was 1.33 µM, the IC50 (NH-12) was 5.59 µM and the IC50 (HCC70) was 1.05 µM.

With `Cc1cnc(-c2cnc(NCCNc3ccc(C#N)cn3)nc2-c2ccc(Cl)cc2Cl)[nH]1` [LADUVIGLUSIB] the IC50 (ES5) was greater than 2.56 µM, the IC50 (TE-11) was greater than 2.56 µM and the IC50 (NUGC-3) was greater than 2.56 µM. The IC50 (NB12) was greater than 2.56 µM, the IC50 (Ramos-2G6-4C10) was greater than 2.56 µM and the IC50 (NCI-H520) was greater than 2.56 µM. For the same molecule, the IC50 (HCC1569) was greater than 2.56 µM, the IC50 (TGBC24TKB) was greater than 2.56 µM and the IC50 (DMS-273) was greater than 2.56 µM. It also gave an IC50 (D283 Med) greater than 2.56 µM, an IC50 (DoTc2-4510) greater than 2.56 µM and an IC50 (SK-OV-3) greater than 2.56 µM. The IC50 (KOSC-2) was greater than 2.56 µM, the IC50 (TYK-nu) was 1.08 µM and the IC50 (HH) was greater than 2.56 µM. It also gave an IC50 (A2780) greater than 2.56 µM, an IC50 (SAS) greater than 2.56 µM and an IC50 (NCI-H2126) greater than 2.56 µM. It also gave an IC50 (PANC-08-13) greater than 2.56 µM, an IC50 (CAMA-1) greater than 2.56 µM and an IC50 (COLO-829) greater than 2.56 µM. For the same molecule, the IC50 (LK-2) was greater than 2.56 µM, the IC50 (WM-115) was greater than 2.56 µM and the IC50 (GOTO) was greater than 2.56 µM. For the same molecule, the IC50 (U2OS) was greater than 2.56 µM, the IC50 (MKN-45) was greater than 2.56 µM and the IC50 (Capan-2) was greater than 2.56 µM. The IC50 (LB771-HNC) was greater than 2.56 µM, the IC50 (RH-1) was greater than 2.56 µM and the IC50 (HCC2157) was greater than 2.56 µM. It also gave an IC50 (A3-KAW) greater than 2.56 µM, an IC50 (NB5) greater than 2.56 µM and an IC50 (BE-13) greater than 2.56 µM. It also gave an IC50 (KYSE-450) greater than 2.56 µM, an IC50 (TE-6) greater than 2.56 µM and an IC50 (ETK-1) greater than 2.56 µM. It also gave an IC50 (Ca-Ski) greater than 2.56 µM, an IC50 (ES4) greater than 2.56 µM and an IC50 (HC-1) greater than 2.56 µM. For the same molecule, the IC50 (MV4-11) was greater than 2.56 µM, the IC50 (SK-PN-DW) was greater than 2.56 µM and the IC50 (VMRC-RCZ) was greater than 2.56 µM. It also gave an IC50 (BHT-101) greater than 2.56 µM, an IC50 (ACN) greater than 2.56 µM and an IC50 (DBTRG-05MG) greater than 2.56 µM. It also gave an IC50 (NCI-H1563) greater than 2.56 µM, an IC50 (EFO-27) greater than 2.56 µM and an IC50 (LB373-MEL-D) greater than 2.56 µM. For the same molecule, the IC50 (SCC-4) was greater than 2.56 µM, the IC50 (NH-12) was greater than 2.56 µM and the IC50 (HCC70) was greater than 2.56 µM.
